This note sets out measurements from ChEMBL document CHEMBL5465560, “Selectivity Literature for EUbOPEN Chemogenomic Library” (2024).

For test [1], the target named is T1, Phosphatidylinositol 5-phosphate 4-kinase type-2 beta (Homo sapiens) (UniProt P78356).
T1 sequence (whole entry): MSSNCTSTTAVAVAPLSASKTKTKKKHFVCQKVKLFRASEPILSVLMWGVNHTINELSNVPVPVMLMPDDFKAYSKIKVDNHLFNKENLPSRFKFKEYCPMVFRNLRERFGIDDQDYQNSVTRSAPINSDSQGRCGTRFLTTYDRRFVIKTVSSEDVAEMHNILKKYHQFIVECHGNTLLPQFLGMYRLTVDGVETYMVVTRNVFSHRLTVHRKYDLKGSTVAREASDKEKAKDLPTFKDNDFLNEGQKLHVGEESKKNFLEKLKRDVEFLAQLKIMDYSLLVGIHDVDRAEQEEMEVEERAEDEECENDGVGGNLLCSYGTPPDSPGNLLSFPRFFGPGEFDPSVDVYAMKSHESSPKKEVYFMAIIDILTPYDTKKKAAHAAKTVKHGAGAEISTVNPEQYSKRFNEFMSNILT
To be noted: at 10 µM.

The target in test [2] is Cyclin-dependent kinase 7 (Homo sapiens, UniProt P50613). Description: Selectivity interaction (KinomeScan (DiscoverX)) EUB0001619a CDK7. Conditions: at 1 µM.
Chain of Cyclin-dependent kinase 7 (P50613 whole entry): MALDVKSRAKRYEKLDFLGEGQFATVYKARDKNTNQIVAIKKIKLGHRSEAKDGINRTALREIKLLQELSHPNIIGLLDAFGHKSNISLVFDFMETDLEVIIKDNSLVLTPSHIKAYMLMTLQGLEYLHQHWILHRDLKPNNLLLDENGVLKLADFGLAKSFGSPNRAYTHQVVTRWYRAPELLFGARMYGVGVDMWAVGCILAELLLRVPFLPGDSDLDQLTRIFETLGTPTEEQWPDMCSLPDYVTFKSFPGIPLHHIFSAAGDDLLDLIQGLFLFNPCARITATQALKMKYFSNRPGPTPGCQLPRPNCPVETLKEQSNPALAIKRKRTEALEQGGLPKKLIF
The target of test [3] is T2, Mitogen-activated protein kinase kinase kinase 3 (Homo sapiens) (UniProt Q99759).
T2 sequence (whole entry): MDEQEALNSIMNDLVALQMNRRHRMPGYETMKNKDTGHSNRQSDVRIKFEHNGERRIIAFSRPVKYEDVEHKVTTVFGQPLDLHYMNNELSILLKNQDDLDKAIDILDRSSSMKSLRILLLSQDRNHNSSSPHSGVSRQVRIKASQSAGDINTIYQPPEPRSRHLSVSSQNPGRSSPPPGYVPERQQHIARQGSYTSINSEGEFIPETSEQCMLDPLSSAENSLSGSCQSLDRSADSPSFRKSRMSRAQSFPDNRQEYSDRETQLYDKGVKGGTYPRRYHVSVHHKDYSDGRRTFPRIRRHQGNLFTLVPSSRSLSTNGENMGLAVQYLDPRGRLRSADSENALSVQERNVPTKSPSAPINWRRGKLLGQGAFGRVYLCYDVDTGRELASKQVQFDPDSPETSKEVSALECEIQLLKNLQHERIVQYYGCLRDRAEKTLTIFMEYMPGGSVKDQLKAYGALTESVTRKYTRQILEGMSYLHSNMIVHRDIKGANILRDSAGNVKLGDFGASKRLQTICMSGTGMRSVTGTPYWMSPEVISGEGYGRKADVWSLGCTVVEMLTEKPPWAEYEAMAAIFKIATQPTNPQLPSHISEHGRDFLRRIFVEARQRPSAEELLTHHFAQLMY
Description: Selectivity interaction (ActivX KiNativ screen (kinase selectivity in THP-1 cell lysates)) EUB0000639a MAP3K3. It counts as subcellular. Conditions: lysate.

The target in test [4] is Eukaryotic translation initiation factor 2-alpha kinase 1 (Homo sapiens) (UniProt Q9BQI3). The experiment in a line: Selectivity interaction (KinomeScan (DiscoverX)) EUB0001049a EIF2AK1. Conditions: at 1 µM.
Chain of Eukaryotic translation initiation factor 2-alpha kinase 1 (Homo sapiens) (Q9BQI3 whole entry): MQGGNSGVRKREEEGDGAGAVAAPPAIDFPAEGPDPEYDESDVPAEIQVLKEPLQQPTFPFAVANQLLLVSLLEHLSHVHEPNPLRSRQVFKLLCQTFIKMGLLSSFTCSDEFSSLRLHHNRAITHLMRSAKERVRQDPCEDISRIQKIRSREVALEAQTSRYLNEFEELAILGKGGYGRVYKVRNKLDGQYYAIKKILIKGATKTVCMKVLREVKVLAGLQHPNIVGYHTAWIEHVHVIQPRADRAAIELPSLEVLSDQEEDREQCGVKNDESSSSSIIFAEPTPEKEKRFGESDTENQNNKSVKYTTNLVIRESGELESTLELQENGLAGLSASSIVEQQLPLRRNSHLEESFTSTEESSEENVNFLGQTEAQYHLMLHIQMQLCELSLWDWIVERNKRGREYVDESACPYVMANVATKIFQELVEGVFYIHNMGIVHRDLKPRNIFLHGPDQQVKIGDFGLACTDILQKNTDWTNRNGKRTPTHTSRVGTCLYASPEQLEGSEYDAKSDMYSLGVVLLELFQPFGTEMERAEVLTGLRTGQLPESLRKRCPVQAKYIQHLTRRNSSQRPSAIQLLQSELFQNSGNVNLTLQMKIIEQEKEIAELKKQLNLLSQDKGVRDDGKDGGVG
The target in test [5] is T3, Ephrin type-A receptor 3 (Homo sapiens) (UniProt P29320).
T3 sequence (whole entry): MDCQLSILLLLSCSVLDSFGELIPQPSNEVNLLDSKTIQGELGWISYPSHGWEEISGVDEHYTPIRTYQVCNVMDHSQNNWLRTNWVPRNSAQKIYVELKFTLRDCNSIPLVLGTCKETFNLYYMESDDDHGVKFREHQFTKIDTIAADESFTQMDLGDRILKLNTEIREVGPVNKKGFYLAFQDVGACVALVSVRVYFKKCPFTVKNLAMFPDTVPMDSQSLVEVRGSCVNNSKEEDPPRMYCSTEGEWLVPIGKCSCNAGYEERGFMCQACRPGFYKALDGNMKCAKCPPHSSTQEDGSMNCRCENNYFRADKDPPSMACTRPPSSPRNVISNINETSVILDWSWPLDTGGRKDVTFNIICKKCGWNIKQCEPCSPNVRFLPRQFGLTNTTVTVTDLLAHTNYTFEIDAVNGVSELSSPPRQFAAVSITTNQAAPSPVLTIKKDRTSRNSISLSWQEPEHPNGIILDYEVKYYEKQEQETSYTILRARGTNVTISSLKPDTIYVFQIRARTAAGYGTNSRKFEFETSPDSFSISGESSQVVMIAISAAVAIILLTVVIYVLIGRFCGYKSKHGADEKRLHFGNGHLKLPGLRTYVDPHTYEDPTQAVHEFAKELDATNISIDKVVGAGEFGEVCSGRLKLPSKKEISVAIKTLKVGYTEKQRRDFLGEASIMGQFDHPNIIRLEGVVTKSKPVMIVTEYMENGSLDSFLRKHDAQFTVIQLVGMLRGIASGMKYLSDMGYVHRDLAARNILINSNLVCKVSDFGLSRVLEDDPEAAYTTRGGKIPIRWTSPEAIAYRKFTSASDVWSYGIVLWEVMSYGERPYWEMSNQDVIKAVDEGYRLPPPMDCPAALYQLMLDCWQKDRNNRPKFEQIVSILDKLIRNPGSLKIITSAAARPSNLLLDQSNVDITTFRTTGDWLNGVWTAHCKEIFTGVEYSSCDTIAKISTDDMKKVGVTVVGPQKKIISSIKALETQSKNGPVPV
The experiment in a line: Selectivity interaction (KinomeScan (DiscoverX)) EUB0001049a EPHA3. Conditions: at 1 µM.

Test [6] addresses Leukocyte tyrosine kinase receptor (Homo sapiens, UniProt P29376). Description: Selectivity interaction (KinomeScan (DiscoverX)) EUB0001049a LTK. To be noted: at 1 µM.

Chain of Leukocyte tyrosine kinase receptor (P29376 whole entry): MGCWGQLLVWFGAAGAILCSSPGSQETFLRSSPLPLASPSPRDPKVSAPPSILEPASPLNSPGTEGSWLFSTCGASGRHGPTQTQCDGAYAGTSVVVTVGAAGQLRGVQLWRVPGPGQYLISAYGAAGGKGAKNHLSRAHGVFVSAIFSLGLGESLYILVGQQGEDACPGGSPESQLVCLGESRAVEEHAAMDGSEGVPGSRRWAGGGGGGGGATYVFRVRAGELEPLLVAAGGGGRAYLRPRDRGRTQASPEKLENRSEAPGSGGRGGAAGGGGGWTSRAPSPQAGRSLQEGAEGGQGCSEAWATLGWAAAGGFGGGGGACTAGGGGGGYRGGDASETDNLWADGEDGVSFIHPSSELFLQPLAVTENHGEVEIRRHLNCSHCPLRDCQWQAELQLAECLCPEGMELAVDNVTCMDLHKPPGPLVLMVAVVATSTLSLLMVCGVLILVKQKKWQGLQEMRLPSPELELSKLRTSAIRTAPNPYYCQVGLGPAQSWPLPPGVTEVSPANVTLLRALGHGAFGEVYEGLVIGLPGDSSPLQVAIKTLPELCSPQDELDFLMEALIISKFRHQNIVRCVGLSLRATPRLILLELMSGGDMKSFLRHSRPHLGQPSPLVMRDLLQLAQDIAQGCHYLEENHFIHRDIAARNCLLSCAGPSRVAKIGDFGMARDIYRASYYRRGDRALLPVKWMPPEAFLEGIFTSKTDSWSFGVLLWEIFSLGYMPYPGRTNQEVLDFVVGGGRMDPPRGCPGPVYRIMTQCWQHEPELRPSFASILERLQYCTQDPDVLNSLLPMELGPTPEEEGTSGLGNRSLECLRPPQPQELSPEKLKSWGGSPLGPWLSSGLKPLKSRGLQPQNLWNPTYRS

For the compound `COCC(=O)NC/C=C/c1ccc2ncnc(Nc3ccc(Oc4ccc(C)nc4)c(C)c3)c2c1` [CP-724714], in test [1], the % of control was found to be 100%.

For `N#Cc1cccc(-c2c[nH]c3ncnc(N4CCOCC4)c23)c1`, the % of control in test [2] is 81%.

As to `CC[C@@H]1[C@H](F)C(=O)N[C@@H]1COc1nccc2cc(C(N)=O)c(OC)cc12` [ZIMLOVISERTIB], the % of inhibition is 8.7% in test [3] (at 0.01 µM); 1.8% in test [3] (at 0.04 µM); -1.4% in test [3] (at 0.2 µM); -7.6% in test [3] (at 1 µM); 12.6% in test [3] (at 5 µM).

As to `COc1cc(Nc2nc(C)cc(-c3cnn4nc(OC)ccc34)n2)cc(C(F)(F)F)c1`, the % of control in test [4] was 89%; in test [5], 80%; in test [6], 91%.
